# According to patent US20230310634A1, “ANTI-HUMAN VISTA ANTIBODIES AND USE THEREOF” (IMMUNEXT, INC., priority 2020, published 2023):
# Entries after “also recorded” stand apart in the source; their conditions may differ.
# Tests used:
# [1] = system: LPS-induced cytokine release; assay: LPS-induced systemic inflammation, plasma cytokines post LPS; parameters: species or system mice; details: mouse, in vivo
# Experimental: In order to evaluate the ADC potential efficacy in auto-immune diseases, we used the short-term model of LPS-induced systemic inflammation. Intraperitoneal (i.p.) injection of lipopolysaccharide (LPS) is widely used as a model for acute immune response—both local and systemic—in mice.
# Blood was collected at 2 or 4 h post LPS i.p. injection, and plasma isolated for cytokine analyses.
# Mice were dosed at 0.5 mg/Kg.
# For ADC-INVIVO-30 and 35, the Immune Monitoring Lab (IML, Shared Resources at Dartmouth-Hitchcock Norris Cotton Cancer Center) performed the analyses.
# ELISAs were conducted following the manufacturer's included protocol.
# Cytokine data are censored when below a […] threshold for IL-12p40 and/or […] threshold for TNF-α as it indicates a failed LPS injection.
# [2] = system: peritoneal resident macrophages; assay: In vivo treatment / ex vivo activation of peritoneal resident macrophages (TNFα, IL-6); parameters: species or system mice; details: Experiment 9, 0.2 mg/Kg of GC payload, day −7, supernatants at 24 h
# [3] = system: LPS stimulated human PBMCs; assay: In vitro potency of steroid payloads in LPS stimulated human PBMCs (IL-1β, IL-6 ELISA); type: cell-based; details: for IL-1β and IL-6 production: Experiment 1, 1000-1 nM
SMILES,potency of conjugated linker/payload in the short term LPS activation model (conclusions) [1],"long term potency in controlling PRM cytokine responses (TNFα, IL-6) [2]",steroid potency as free payloads in LPS-activated human PBMCS (conclusions) [3],other results
"CC12C=CC(=O)C=C1CCC1C2C(O)CC2(C)C1CC1OC(c3ccc(Cc4cnc(NC(=O)C(CCC(=O)O)NC(=O)CNC(=O)CBr)s4)cc3)OC12C(=O)CO [INX N, (S)-4-(2-(2-bromoacetamido)acetamido)-5-((5-(4-((6aR,6bS,7S,8aS,8bS,10R,11aR,12aS,12bS)-7-hydroxy-8b-(2-hydroxyacetyl)-6a,8a-dimethyl-4-oxo-2,4,6a,6b,7,8,8a,8b,11a,12,12a,12b-dodecahydro-1H-naphtho[2′,1′:4,5]indeno[1,2-d][1,3]dioxol-10-yl)benzyl)thiazol-2-yl)amino)-5-oxopentanoic acid]",no potency,,,
"C[C@]12C=CC(=O)C=C1CC[C@@H]1[C@@H]2[C@@H](O)C[C@@]2(C)[C@H]1C[C@H]1O[C@@H](C34CC(Cc5cccc(NC(=O)[C@H](CCC(=O)O)NC(=O)CNC(=O)CBr)c5)(C3)C4)O[C@]12C(=O)CO [INX O, (S)-4-(2-(2-bromoacetamido)acetamido)-5-((3-((3-((6aR,6bS,7S,8aS,8bS,10R,11aR,12aS,12bS)-7-hydroxy-8b-(2-hydroxyacetyl)-6a,8a-dimethyl-4-oxo-2,4,6a,6b,7,8,8a,8b,11a,12,12a,12b-dodecahydro-1H-naphtho[2′,1′:4,5]indeno[1,2-d][1,3]dioxol-10-yl)bicyclo[1.1.1]pentan-1-yl)methyl)phenyl)amino)-5-oxopentanoic acid]",reduced potency,little and non-significant impact; also recorded: very limited potency,,
"C[C@]12C=CC(=O)C=C1CC[C@@H]1[C@@H]2[C@@H](O)C[C@@]2(C)[C@H]1C[C@H]1O[C@@H](c3ccc(CC45CC(NC(=O)[C@H](CCC(=O)O)NC(=O)CNC(=O)CBr)(C4)C5)cc3)O[C@]12C(=O)CO [INX P, (S)-4-(2-(2-bromoacetamido)acetamido)-5-((3-(4-((6aR,6bS,7S,8aS,8bS,10R,11 aR,12aS,12bS)-7-hydroxy-8b-(2-hydroxyacetyl)-6a,8a-dimethyl-4-oxo-2,4,6a,6b,7,8,8a,8b,11a,12,12a,12b-dodecahydro-1H-naphtho[2′,1′:4,5]indeno[1,2-d][1,3]dioxol-10-yl)benzyl)bicycle[1.1.1]pentan-1-yl)amino)-5-oxopentanoic acid]",more potent,,,
"C[C@H](NC(=O)CBr)C(=O)N[C@@H](C)C(=O)NC12CC(Cc3ccc([C@@H]4O[C@@H]5C[C@H]6[C@@H]7CCC8=CC(=O)C=C[C@]8(C)[C@H]7[C@@H](O)C[C@]6(C)[C@]5(C(=O)CO)O4)cc3)(C1)C2 [INX R, (S)-2-(2-bromoacetamido)-N—((S)-1-((3-(4-((6aR,6bS,7S,8aS,8bS,10R,11aR, 12aS,12bS)-7-hydroxy-8b-(2-hydroxyacetyl)-6a,8a-dimethyl-4-oxo-2,4,6a,6b,7,8,8a,8b,11a,12,12a,12b-dodecahydro-1H-naphtho[2′,1′:4,5]indeno[1,2-d][1,3]dioxol-10-yl)benzyl)bicyclo [1.1.1]pentan-1-yl)amino)-1-oxopropan-2-yl)propanamide]",efficacious,,,
"C[C@]12C=CC(=O)C=C1[C@@H](F)C[C@H]1[C@@H]3C[C@H]4O[C@@H](c5ccc(CC67CC(NC(=O)[C@H](CCC(=O)O)NC(=O)CNC(=O)CBr)(C6)C7)cc5)O[C@@]4(C(=O)CO)[C@@]3(C)C[C@H](O)[C@@]12F [INX S, (S)-4-(2-(2-bromoacetamido)acetamido)-5-((3-(4-((2S,6aS,6bR,7S,8aS,8bS, 10R,11 aR,12aS,12bS)-2,6b-difluoro-7-hydroxy-8b-(2-hydroxyacetyl)-6a,8a-dimethyl-4-oxo-2,4,6a,6b,7,8,8a,8b,11a,12,12a,12b-dodecahydro-1H-naphtho[2′,1′:4,5]indeno[1,2-d][1,3]dioxol-10-yl)benzyl)bicyclo [1.1.1]pentan-1-yl)amino)-5-oxopentanoic acid]",,remarkable long term potency; also recorded: increased potency relative to INX P,,
"C[C@]12C=CC(=O)C=C1CC[C@@H]1[C@@H]2[C@@H](O)C[C@@]2(C)[C@H]1C[C@H]1O[C@@H](c3ccc(CC4CC5(C4)CC(NC(=O)[C@H](CCC(=O)O)NC(=O)CNC(=O)CBr)C5)cc3)O[C@]12C(=O)CO (stereo partly drawn) [INX V, (S)-4-(2-(2-bromoacetamido)acetamido)-5-((6-(4-((6aR,6bS,7S,8aS,8bS,10R,11 aR,12aS,12bS)-7-hydroxy-8b-(2-hydroxyacetyl)-6a,8a-dimethyl-4-oxo-2,4,6a,6b,7,8,8a,8b,11a,12,12a,12b-dodecahydro-1H-naphtho[2′,1′:4,5]indeno[1,2-d][1,3]dioxol-10-yl)benzyl)spiro[3.3]heptan-2-yl)amino)-5-oxopentanoic acid]",,remarkable long term potency,,
"C[C@]12C=CC(=O)C=C1CC[C@@H]1[C@@H]2[C@@H](O)C[C@@]2(C)[C@H]1C[C@H]1O[C@@H](c3ccc(CC45CC(NC(=O)[C@H](CCCCN)NC(=O)CNC(=O)CBr)(C4)C5)cc3)O[C@]12C(=O)CO [INX W, (S)-6-amino-2-(2-(2-bromoacetamido)acetamido)-N-(3-(4-((6aR,6bS,7S,8aS,8bS,10R,11aR,12aS,12bS)-7-hydroxy-8b-(2-hydroxyacetyl)-6a,8a-dimethyl-4-oxo-2,4,6a,6b,7,8,8a,8b,11a,12,12a,12b-dodecahydro-1H-naphtho[2′,1′:4,5]indeno[1,2-d][1,3]dioxol-10-yl)benzyl)bicycle [1.1.1]pentan-1-yl)hexanamide]",efficacious,remarkable long term potency; also recorded: increased potency relative to INX P and INX R,,
"C[C@]12C=CC(=O)C=C1CC[C@@H]1[C@@H]2[C@@H](O)C[C@@]2(C)[C@H]1C[C@H]1O[C@H](c3ccc(CC45CC(N)(C4)C5)cc3)O[C@]12C(=O)CO [INX-SM-53, (6aR,6bS,7S,8aS,8bS,10S,11aR,12aS,12bS)-10-(4-((3-aminobicyclo[1.1.1]pentan-1-yl)methyl)phenyl)-7-hydroxy-8b-(2-hydroxyacetyl)-6a,8a-dimethyl-1,2,6a,6b,7,8,8a,8b, 11a,12,12a,12b-dodecahydro-4H-naphtho[2′,1′:4,5]indeno[1,2-d][1,3]dioxol-4-one]",,,did not show potency,"IL-1β and IL-6 production ([3]; 1 ng/mL LPS, 24 hr, n=1 donor): did not show inhibition"
"C[C@]12C=CC(=O)C=C1CC[C@@H]1[C@@H]2[C@@H](O)C[C@@]2(C)[C@H]1C[C@H]1O[C@H](C34CC(Cc5cccc(N)c5)(C3)C4)O[C@]12C(=O)CO [INX-SM-54, (6aR,6bS,7S,8aS,8bS,10S,11aR,12aS,12bS)-10-(3-(3-aminobenzyl)bicyclo[1.1.1]pentan-1-yl)-7-hydroxy-8b-(2-hydroxyacetyl)-6a,8a-dimethyl-1,2,6a,6b,7,8,8a,8b,11a,12,12a,12b-dodecahydro-4H-naphtho[2′,1′:4,5]indeno[1,2-d][1,3]dioxol-4-one]",,,did not show potency,"IL-1β and IL-6 production ([3]; 1 ng/mL LPS, 24 hr, n=1 donor): did not show inhibition"
"C[C@]12C=CC(=O)C=C1CC[C@@H]1[C@@H]2[C@@H](O)C[C@@]2(C)[C@H]1C[C@H]1O[C@H](c3cnc(Cc4cccc(N)c4)s3)O[C@]12C(=O)CO [INX-SM-56, (6aR,6bS,7S, 8aS,8bS,10S,11aR,12aS,12bS)-10-(2-(3-aminobenzyl)thiazol-5-yl)-7-hydroxy-8b-(2-hydroxyacetyl)-6a,8a-dimethyl-1,2,6a,6b,7,8,8a,8b, 11a,12,12a,12b-dodecahydro-4H-naphtho[2′,1′:4,5]indeno[1,2-d][1,3]dioxol-4-one]",,,did not show potency,"IL-1β production ([3]; Experiment 2, 1000-1 nM, 1 ng/mL LPS, 24 hr, n=1 donor): did not show inhibition"
"C[C@]12C=CC(=O)C=C1[C@@H](F)C[C@H]1[C@@H]3C[C@H]4O[C@H](c5ccc(CC67CC(N)(C6)C7)cc5)O[C@@]4(C(=O)CO)[C@@]3(C)C[C@H](O)[C@@]12F [INX-SM-74, (2S,6aS,6bR,7S,8aS,8bS,10S,11aR,12aS,12bS)-10-(4-((3-aminobicyclo[1.1.1]pentan-1-yl)methyl)phenyl)-2,6b-difluoro-7-hydroxy-8b-(2-hydroxyacetyl)-6a,8a-dimethyl-1,2,6a,6b,7,8,8a,8b,11a,12,12a,12b-dodecahydro-4H-naphtho[2′,1′:4,5]indeno[1,2-d][1,3]dioxol-4-one]",,,varying degrees of dose dependent steroid potency; also recorded: moderate potency,"impact of halogenation of the steroid ring on potency ([3]; Experiment 6, 1000-0.16 nM, compared with INX-SM-3): dose dependent potency"
